Results on 5 compounds are retold here after US20210087159A1, “TETRAHYDROCANNABINOLIC- CA[…] DERIVATIVES AND USES THEREOF” (AL&AM […]., priority 2018, published 2021).

Common to all, as to type: cell-based
In test [1] the test system is TNF-α. Kind of test: LPS induced cytokine release assay, TNF-α by ELISA in PBMCs. The following applies: human PBMCs; for TNF-α: 72 h, ELISA (LPS control 18.16). From the text:
(§1) This study was aimed to test the effect of 12 compounds (THCA, Ia1, Ia5, Ia6, Ia9, Ia11, Ia15, Ia17, Ia24, Ia25, Ia27, and Ia28) on human peripheral blood mononuclear cells (PBMCs) challenged by lipopolysaccharide (LPS) through monitoring multiple inflammatory endpoints.
(§2) Blood samples were collected from healthy volunteers according to protocols that have been reviewed and approved by the Chempartner Institutional Ethic Committee (IEC) upon signing an Informed Consent Form (ICF).
(§3) Fresh PBMCs were isolated and seeded into 96-well plate, and diluted solutions of the tested compounds and 0.1 μg/mL LPS were then added (in triplicates). To serve as control, 3 wells with PBMCs only, 3 wells with 0.1 μg/mL LPS, and 2 wells with 1 μg/mL dexamethasone (Dex) and 0.1 μg/mL LPS were included. After 72 hours incubation, supernatant was collected for tumor necrosis factor-α (TNF-α) measurement by enzyme-linked immunosorbent assay (ELISA), and cell pellets were harvested for cell proliferation measurement by CellTiter-Glo® Luminescent Cell Viability Assay (CTG).
(§4) The human blood sample from an individual donor was diluted by the same volume of sterile phosphate buffered solution (PBS) and mixed sufficiently by gentle shake. 15 mL Lymphoprep™ medium was transferred into a new 50 mL centrifuge tube, and the diluted blood sample (30 mL) was then carefully added onto the surface of the medium, which consequently contained Ficoll 400 and blood in a volume ratio of 1:2. Four interfaces were observed after centrifugation, which are, from top to bottom, layers of plasma, mononuclear cells, Ficoll medium, and red blood cells (RBCs). Plasma was absorbed, and mononuclear cells were then transferred into another new sterile centrifuge tube. Then, sterile PBS buffer was added into the collected PBMCs for washing, at a volume ratio of 3:1. PBMCs were washed with 5-10 mL PBS twice before cell counting with cytometer. Cells were centrifuged at 350×g, for 10 min, at 20° C. with the acceleration (5) and deceleration (5) settings during the centrifugation. The cells were resuspended with RPMI 1640 complete medium (containing 10% FBS) for assay, and the density was adjusted with RPMI 1640 complete medium to the final concentration of 2E6 cells/mL. Cells suspension of the PBMCs (100 μL/well) were seeded into 96-well plate (#3903).
(§5) Diluted solutions of the tested compounds were prepared with RPMI 1640 complete medium according to the following layout. Compounds were prepared at 5-fold of concentration (50 μM), and then were diluted to the working concentration of 10 μM with RPMI 1640 complete medium and made 10-fold serially dilution (2 points). The diluted compounds (50 μL/well) were added to the indicated wells, and the plate was incubated at 37° C., 5% CO2, for 72 h.
(§6) LPS (0.1 μg/mL, 100 μL) was added into each well. Dex (1 μg/mL) was included as a positive control. Plate was incubated at 37° C., 5% CO2 for 72 h. Supernatant was collected to measure TNF-α by ELISA. Cell proliferation was detected by CTG.
For orientation: ELISA stands for enzyme-linked immunosorbent assay.

Test [2] has as its system human peripheral blood mononuclear cells (PBMCs). The test can be described thus: Cell proliferation of LPS-challenged PBMCs by CellTiter-Glo (CTG). The note with it: human PBMCs, 72 h (LPS control 84.50).
Description: as §1, §2, §3, §4, §5, §6
A general note: Cellular ATP, detected with luciferase, serves as a proxy for viable cell number.

Test [3] has as its system PANC-1 (pancreatic carcinoma). Kind of test: XTT cytotoxicity assay (Pharma Seed). The following applies: Homo sapiens, 48 hours, 20, 10, 5, 1 μM, assay medium 1% FBS. The protocol:
In this study, the cytotoxicity of several compounds of the present invention on lung and pancreatic cancer cell was evaluated.
PANC-1 (pancreatic carcinoma) culture medium: DMEM (High Glucose), supplemented with 10% FBS (heat inactivated), 2 mM L-glutamine, and 1% of Pen/Strep/Amp solution. PANC-1 assay medium: DMEM (High Glucose), supplemented with 1% FBS (heat inactivated), 2 mM L-glutamine, and 1% of Pen/Strep/Amp solution.
Each of the tested compounds was dissolved in DMSO to reach a stock concentration of 20 mM (and stored at −15° C.-−25° C. until use. Compound Ia28 (MW 484 g/mol, 3.05 mg total) was dissolved in 0.315 mL; compound Ia9 (MW 484 g/mol, 2.33 mg total) was dissolved in 0.241 mL; and compound Ia6 (MW 428.3 g/mol, 2.25 mg total) was dissolved in 0.262 mL.
On the day of incubation with the cells, each compound was diluted in DMSO to reach 2 mM, 1 mM, 0.5 mM, 0.1 mM stock concentrations (1:10, 1:20, 1:40 and 1:200), and each of these stocks was further diluted in assay medium 1:100 for final concentration of 20 μM, 10 μM, 5 μM, and 1 μM.
Part 1—cell number calibration. PANC-1 and A549 cells were each plated in a 96 well plate, in their culture medium, at various cell concentrations per well, in triplicates, and were allowed to attach for 24 hours. Thereafter, culture medium was discarded, assay medium was added, and the cells were incubated for additional 72 hours. Finally, assay medium was discarded, and fresh culture medium was added to the cells along with 50 μl XTT reagent. The OD was measured every two hours for 6 hours (three times).
The highest cells number/well were chosen for part 2 as follows: PANC-1 at 7,500 cells per well, A549 at 5000 cells per well.
Part 2—cells incubation with tested compounds. PANC-1 and A549 cells were plated in a 96 well plate, in their culture medium, at the optimal cell concentration according to the results from the previous section and were allowed to attach for 24 hours. Thereafter, the culture medium was discarded, and fresh assay medium was added to the cells, supplemented with elevating compound concentrations. Triton 0.1% was used as positive control for cell death. The cells were incubated for another 48 hours (TBD upon microscopic observation). Finally, fresh culture medium was added to the cells along with 50 μl XTT reagent. The OD was measured at the optimal time point according to the results in the previous section.
A general note: Tetrazolium assays rely on reduction of a dye to a coloured formazan, in cell work by metabolically active cells.

Test [4] relates to SK-HEP-1, liver adenocarcinoma. The test can be described thus: CellTiter-Glo cell viability assay, cancer cell cytotoxicity/anti-proliferation panel (Chempartner). The following applies: Homo sapiens, SK-HEP1, 72 h; read-out: IC50 (absolute IC50). The protocol:
(§7) In this study, the biological activity of certain compounds of the present invention on cancer cell cytotoxicity/anti-proliferation panel was tested using the CellTiter-Glo® cell viability assay. The compounds were dissolved in DMSO to make 10 mM solution.
(§8) The cell lines tested were all selected from the Chempartner's cell collection and included: Caco-2 ATCC colon adenocarcinoma; TE-6 RIKEN esophagus, carcinoma; PC-3 ATCC prostate adenocarcinoma; T47D, breast ductal carcinoma; U251, brain human glioma; A549, lung carcinoma; OMP-2, multiple myeloma; SK-HEP-1, liver adenocarcinoma; PANC-1, pancreas ductal carcinoma; AsPC-1, pancreas, ductal carcinoma; and U-87 MG, brain glioblastoma.
(§9) For the assays described herein, absolute inhibition of cells growth (%) and absolute IC50 (Abs IC50; […]) were used to derive a value that can be used to compare results within and across runs in the same assay, as well as between different assays.
(§10) • a. Prepare complete medium: Add FBS and appropriate additives according to the information sheet provided by the vendor. Mix gently. • b. Check the cell name and complete medium and passage number marked on the flask. For adherent cell lines, refer to c to k. For suspension cell lines, refer to g to k. • c. Remove and discard culture medium using a vacuum pump. • d. Briefly rinse the cell layer with 0.25% (w/v) trypsin-0.038% (w/v) EDTA solution to remove all traces of serum that contains trypsin inhibitor. • e. Add 3.0 ml of trypsin-EDTA solution to flask and observe cells under an inverted microscope until cell layer is dispersed. • f. Add 8.0 ml of complete growth medium and aspirate cells by gently pipetting. • g. Transfer the cell suspension to a centrifuge tube and centrifuge at 800-1000 rpm for 3-5 minutes. • h. Discard the supernatant using a vacuum pump. • i. Add appropriate volume of complete medium. Suspend the cell pellet by gently pipetting. • j. Count the cell numbers with Vi-cell XR and adjust cells to appropriate density. • k. Add 100 μL of cell suspension to 96-well opaque-walled clear bottom plates according to the planned plate layout and place the plates in the CO2 incubator overnight. • l. Plate layout:
(§11) • Plate preparation of testing articles. 10 mM stock solution of each one of the compounds (provided as powder) was prepared in DMSO. […] 0.5 μL of each of the diluted compounds was transferred to the wells containing 100 μL of the culture medium. The total dilution was 200 fold. Cells were incubated with the compounds for 72 hours at 5% CO2, 37° C.
(§12) • Thaw the CellTiter-Glo buffer and equilibrate to room temperature prior to use. • Equilibrate the lyophilized CellTiter-Glo substrate to room temperature prior to use. • Transfer the appropriate volume of CellTiter-Glo buffer into the amber bottle containing CellTiter-Glo substrate to reconstitute the lyophilized enzyme/substrate mixture. This forms the CellTiter-Glo reagent. • Mix by gently vortexing, swirling or by inverting the contents to obtain a homogeneous solution. The CellTiter-Glo substrate should go into solution easily in less than one minute.
(§13) • Observe the cell morphology under an inverted microscope after corresponding treatment. • Equilibrate the plate and its contents to room temperature for approximately 30 minutes. • Add 100 μL of CellTiter-Glo reagent to the assay plate by Multidrop Combi instrument. • Mix contents for 10 minutes on an orbital shaker to induce cell lysis. • Allow the plate to incubate at room temperature for 10 minutes to stabilize luminescent signal. • Paste the clear bottom with white back seal and record luminescence with Enspire. The settings should be: Luminescence, measurement time 0.1 ms.
(§14) Inhibition (%) and absolute IC50 (μM) of each compound was calculated with XLFit curve fitting software that is compatible to Activity Base.

The subject of test [5] is U-87 MG, brain glioblastoma. The test is described as above. The note with it: Homo sapiens, 72 h, read-out: IC50 (absolute IC50). How it is done:
as §7, §8, §9, §10, §11, §12, §13, §14

The subject of test [6] is PANC-1, pancreas ductal carcinoma. Described as above. The note with it: Homo sapiens, PANC-1, 72 h; read-out: IC50 (absolute IC50). How it is done:
as §7, §8, §9, §10, §11, §12, §13, §14

pIC50: −log10 of the molar value.

The term pIC50 denotes the negative decadic logarithm of the IC50, by convention in mol/L. Turning to `C=C(C)[C@@H]1CCC(C)=C[C@H]1c1c(O)cc(CCCCC)c(C(=O)NCCN2CCCC2)c1O` [Ia27, (1′R,2′R)-2,6-dihydroxy-5′-methyl-4-pentyl-2′-(prop-1-en-2-yl)-N-(2-(pyrrolidin-1-yl)ethyl)-1′,2′,3′,4′-tetrahydro-[1,1′-biphenyl]-3-carboxamide], the figures for the TNF-α in test [1] (compound 1 μM + 0.1 μg/mL LPS) and in test [1] (compound 10 μM + 0.1 μg/mL LPS) were 36.23 pg/mL and 22.09 pg/mL, respectively. In addition, the “change of TNF-α expression in LPS-treated cells” value in test [1] (tested concentrations of 1 M and 10 M (so in the source)) is “decreased TNF-α expression”. Besides, the values for the CTG signal in test [2] (compound 1 μM + 0.1 μg/mL LPS) and in test [2] (compound 10 μM + 0.1 μg/mL LPS) were 81.90 10^4 and 78.67 10^4, respectively. For the same compound, the pIC50 in test [3] is 5.12.
As for `CCCCCc1cc2c(c(O)c1C(=O)NCCNc1ncccn1)[C@@H]1C=C(C)CC[C@H]1C(C)(C)O2` [Ia31, (6aR,0aR)-1-hydroxy-6,6,9-trimethyl-3-pentyl-N-(2-(pyrimidin-2-ylamino)ethyl)-6a,7,8,10a-tetrahydro-6H-benzo[c]chromene-2-carboxamide], the negative-log IC50 (pIC50) in test [3] is 5.07.
Consider `CCCCCc1cc2c(c(O)c1C(=O)NCCN1CCCC1)[C@@H]1C=C(C)CC[C@H]1C(C)(C)O2` [Ia32, (6aR,0aR)-1-hydroxy-6,6,9-trimethyl-3-pentyl-N-(2-(pyrrolidin-1-yl)ethyl)-6a,7,8,10a-tetrahydro-6H-benzo[c]chromene-2-carboxamide], for which, in test [3], the negative logarithm of the IC50 (pIC50) is 5.41.
Still for that read-out and setting: in the case of `CCCCCc1cc2c(c(O)c1C(=O)NCCn1ccnc1)[C@@H]1C=C(C)CC[C@H]1C(C)(C)O2` [Ia33, (6aR,0aR)—N-(2-(1H-imidazol-1-yl)ethyl)-1-hydroxy-6,6,9-trimethyl-3-pentyl-6a,7,8,10a-tetrahydro-6H-benzo[c]chromene-2-carboxamide] it was 5.17.
For `CN[C@@H]1C[C@H]2O[C@@](C)([C@@H]1OC)n1c3ccccc3c3c4c(c5c6ccccc6n2c5c31)C(=O)NC4` [STS, Staurosporine, reference compound], the pIC50 in test [4] was 7.15; in test [5], 7.09; in test [6], 7.40.
